How the values were obtained:
[1] = hydrophilic/lipophilic ratio; cited from earlier work
adipose tissue = experiment: Clinical study: histological analysis of adipose tissue after subcutaneous injection into areas with localized cellulite; format: in vivo, patient; conditions: surfactant added to ascorbate composition
Description: Step (c) Ten ml of diluents solution were used to reconstitute the mixture of sodium ascorbate and sodium chloride. Cosmetic Treatment: 5 ml of reconstituted solutions were given by subcutaneous injection into local areas with localized cellulite; lipolytic effect, adverse reactions and necrosis were evaluated by histological analysis.
The cosmetic treatment using the composition according to the invention was administered to a group of subjects who were well informed of the procedure; all gave their consent to the use of the results of the study for obtaining a patent grant. […]
A more specific and in-depth observation of the lower limbs was first made to assess, visually, the presence, location and extent of the irregularities of skin surface typical of cellulite. […] By photographic, thermographic and ultrasound instrumental investigations, the condition of each subject have been determined and classified according to a cellulite evaluation scale, ad hoc elaborated for the present study: • grade 0: exempt subjects; • grade 1: local skin rupture, characterized by few presence of irregular skin surface (madras skin or mattres phenomenon) with pit shaped introflexions; • grade 2: generalized skin rupture (skin roughness or orange peel skin). […]

adipocytes = conditions: concentration of 0.06% (3.3 mM); Gao Yan et al. 2009; cited from earlier work
[2] = also printed as 0.0176% to 0.176%; Sakagami H. et al. 1996; cited from earlier work

Q: Which HLB [1] does the source give for `CCCCCCCC/C=C\CCCCCCCC(=O)OCC(O)CO` (stereo not drawn) [Glyceryl monooleate] here?
A: The HLB was “HLB: 2-3”.

Q: With `CCCCCCCCCCCCCCCC(=O)OC[C@H](O)[C@H]1OC(=O)C(O)=C1O` [Ascorbyl Palmitate, ascorbyl palmitate] as the compound, how does the “ability of surfactants to determine the improvement of the lipolytic action of ascorbic acid salt” value (adipose tissue) read?
A: Its value is “particularly effective”.

Q: What about the HLB [1] of the same compound?
A: Its HLB is “HLB: 4-5”.

Q: Which HLB [1] does the source give for Polysorbate 80 here?
A: Its HLB is “HLB: 10-12”.

Q: Which “apoptotic damage and adipocytes decrease” value (adipocytes) does the source give for `O=C1O[C@H]([C@@H](O)CO)C(O)=C1O` [ascorbic acid] here?
A: The value was “ineffective”.

Q: And the “concentration range to induce an apoptotic effect” value [2]?
A: The value was 1 to 10 mM.

From patent publication EP3272330A1, “COMPOSITION AND COSMETIC METHOD FOR REDUCING CELLULITE BLEMISHES” (Italfarmacia S.r.l., priority 2016, dated 2018)
